Source: patent publication US20100076015A1, “Aminopyridine Derivatives” (VANTIA LIMITED, priority 2008, published 2010)

target: T1, Human KLK1 (Homo sapiens, UniProt P06870); experiment: Determination of the IC50 for KLK1 (fluorogenic substrate H-DVal-Leu-Arg-AFC); format: biochemical; conditions: 37° C.
T1 construct: purchased Callbiochem (Calbiochem)
Outline: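 Test compound at various concentrations was incubated with human KLK1 and the fluorogenic substrate H-DVal-Leu-Arg-AFC at 37° C. Absorbance change at 410 nm gave the initial reaction rate, from which IC50 was obtained.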

T1 sequence (P06870 25-262): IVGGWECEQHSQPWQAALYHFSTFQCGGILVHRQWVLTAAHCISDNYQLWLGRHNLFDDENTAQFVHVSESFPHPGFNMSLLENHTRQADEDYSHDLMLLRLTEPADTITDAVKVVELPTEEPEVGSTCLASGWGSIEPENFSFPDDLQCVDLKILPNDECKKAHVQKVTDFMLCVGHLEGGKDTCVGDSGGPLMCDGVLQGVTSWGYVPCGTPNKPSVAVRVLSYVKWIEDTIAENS

Row | Compound | IC50 [nM]
1 | CC(C)CN(C)[C@@H](C)C(=O)N[C@@H](Cc1ccc(F)c(F)c1)C(=O)NCc1ccc(N)nc1 [Example 177, (S)—N-[(S)-1-[(6-Amino-pyridin-3-ylmethyl)-carbamoyl]-2-(3,4-difluoro-phenyl)-ethyl]-2-(isobutyl-methyl-amino)-propionamide] | 1.9
2 | CCC(C)[C@H](C(=O)N[C@@H](Cc1ccc(F)c(F)c1)C(=O)NCc1ccc(N)nc1)N(C)C (stereo partly drawn) [Example 178, (R)-2-Dimethylamino-3-methyl-pentanoic acid [(S)-1-[(6-amino-pyridin-3-ylmethyl)-carbamoyl]-2-(3,4-difluoro-phenyl)-ethyl]-amide] | 15.9
3 | CN(C)[C@@H](C(=O)N[C@@H](Cc1ccc(F)c(F)c1)C(=O)NCc1ccc(N)nc1)C(C)(C)C [Example 179, (R)—N-[(S)-1-[(6-Amino-pyridin-3-ylmethyl)-carbamoyl]-2-(3,4-difluoro-phenyl)-ethyl]-2-dimethylamino-3,3-dimethyl-butyramide] | 3.01
4 | CC(C)N(C)[C@H](C)C(=O)N[C@@H](Cc1ccc(F)cc1)C(=O)NCc1ccc(N)nc1 [Example 180, (R)—N-[(S)-1-[(6-Amino-pyridin-3-ylmethyl)-carbamoyl]-2-(4-fluoro-phenyl)-ethyl]-2-(isopropyl-methyl-amino)-propionamide] | 7.9
5 | CC(C)N(C)[C@@H](C)C(=O)N[C@@H](Cc1ccc(F)cc1)C(=O)NCc1ccc(N)nc1 [Example 181, (S)—N-[(S)-1-[(6-Amino-pyridin-3-ylmethyl)-carbamoyl]-2-(4-fluoro-phenyl)-ethyl]-2-(isopropyl-methyl-amino)-propionamide] | 1.1
6 | CCC(C)[C@H](C(=O)N[C@@H](Cc1ccc(F)cc1)C(=O)NCc1ccc(N)nc1)N(C)C (stereo partly drawn) [Example 182, (R)-2-Dimethylamino-3-methyl-pentanoic acid [(S)-1-[(6-amino-pyridin-3-ylmethyl)-carbamoyl]-2-(4-fluoro-phenyl)-ethyl]-amide] | 21.2
7 | CN(C)[C@@H](C(=O)N[C@@H](Cc1ccc(F)cc1)C(=O)NCc1ccc(N)nc1)C(C)(C)C [Example 183, (R)—N-[(S)-1-[(6-Amino-pyridin-3-ylmethyl)-carbamoyl]-2-(4-fluoro-phenyl)-ethyl]-2-dimethylamino-3,3-dimethyl-butyramide] | 5.1
8 | CC(C)N[C@H](Cc1ccccc1)C(=O)N[C@@H](Cc1ccc(F)c(F)c1)C(=O)NCc1ccc(N)nc1 [Example 184, (R)—N-[(S)-1-[(6-Amino-pyridin-3-ylmethyl)-carbamoyl]-2-(3,4-difluoro-phenyl)-ethyl]-2-isopropylamino-3-phenyl-propionamide] | 44.4
9 | CN(C)[C@H](Cc1ccccc1)C(=O)N[C@@H](Cc1ccc(F)c(F)c1)C(=O)NCc1ccc(N)nc1 [Example 185, (R)—N-[(S)-1-[(6-Amino-pyridin-3-ylmethyl)-carbamoyl]-2-(3,4-difluoro-phenyl)-ethyl]-2-dimethylamino-3-phenyl-propionamide] | 14.5
10 | CN[C@@H](Cc1ccccc1)C(=O)N[C@H](Cc1ccc(Cl)c(Cl)c1)C(=O)NCc1ccc(N)nc1C [Example 193, (S)—N-[(R)-1-[(6-Amino-2-methyl-pyridin-3-ylmethyl)-carbamoyl]-2-(3,4-dichloro-phenyl)-ethyl]-2-methylamino-3-phenyl-propionamide] | 10.9
11 | Cc1nc(N)ccc1CNC(=O)[C@H](Cc1ccc(Cl)c(Cl)c1)NC(=O)[C@H](N)Cc1ccc(F)cc1 [Example 194, (R)-2-Amino-N-[(S)-1-[(6-amino-2-methyl-pyridin-3-ylmethyl)-carbamoyl]-2-(3,4-dichloro-phenyl)-ethyl]-3-(4-fluoro-phenyl)-propionamide] | 5.1
12 | Cc1nc(N)ccc1CNC(=O)[C@H](Cc1ccc(Cl)c(Cl)c1)NC(=O)[C@H](N)Cc1ccc(Cl)cc1 [Example 195, (R)-2-Amino-N-[(S)-1-[(6-amino-2-methyl-pyridin-3-ylmethyl)-carbamoyl]-2-(3,4-dichloro-phenyl)-ethyl]-3-(4-chloro-phenyl)-propionamide] | 5.4
13 | Cc1nc(N)ccc1CNC(=O)[C@@H](Cc1ccc(Cl)c(Cl)c1)NC(=O)[C@@H](N)c1ccccc1 [Example 197, (R)—N-(6-Amino-2-methyl-pyridin-3-ylmethyl)-2-((S)-2-amino-2-phenyl-acetylamino)-3-(3,4-dichloro-phenyl)-propionamide] | 84.6

Continued, values first:

Row | IC50 [nM] | Compound
14 | 0.81 | Cc1nc(N)ccc1CNC(=O)[C@H](CC1CCCC2CCCCC21)NC(=O)[C@H](N)C(C)C (stereo partly drawn) [Example 186, (R)-2-Amino-N-[(S)-1-[(6-amino-2-methyl-pyridin-3-ylmethyl)-carbamoyl]-2-(decahydro-naphthalen-1-yl)-ethyl]-3-methyl-butyramide]
15 | 0.71 | CCC(C)[C@@H](N)C(=O)N[C@@H](CC1CCCC2CCCCC21)C(=O)NCc1ccc(N)nc1C (stereo partly drawn) [Example 187, (R)-2-Amino-3-methyl-pentanoic acid [(S)-1-[(6-amino-2-methyl-pyridin-3-ylmethyl)-carbamoyl]-2-(decahydro-naphthalen-1-yl)-ethyl]-amide]
16 | 1.2 | CCC(C)[C@@H](NC)C(=O)N[C@H](Cc1ccc(Cl)c(Cl)c1)C(=O)NCc1ccc(N)nc1C (stereo partly drawn) [Example 188, (2R)-3-Methyl-2-methylamino-pentanoic acid [(R)-1-[(6-amino-2-methyl-pyridin-3-ylmethyl)-carbamoyl]-2-(3,4-dichloro-phenyl)-ethyl]-amide]
17 | 4.2 | Cc1nc(N)ccc1CNC(=O)[C@@H](Cc1ccc(Cl)c(Cl)c1)NC(=O)[C@H]1CCCN1 [Example 189, (R)-Pyrrolidine-2-carboxylic acid [(R)-1-[(6-amino-2-methyl-pyridin-3-ylmethyl)-carbamoyl]-2-(3,4-dichloro-phenyl)-ethyl]-amide]
18 | 1.8 | Cc1nc(N)ccc1CNC(=O)[C@@H](Cc1ccc(Cl)c(Cl)c1)NC(=O)[C@H]1CCCN1C [Example 190, (R)-1-Methyl-pyrrolidine-2-carboxylic acid [(R)-1-[(6-amino-2-methyl-pyridin-3-ylmethyl)-carbamoyl]-2-(3,4-dichloro-phenyl)-ethyl]-amide]
19 | 33.3 | Cc1nc(N)ccc1CNC(=O)[C@@H](Cc1ccc(Cl)c(Cl)c1)NC(=O)[C@H]1CSCN1 [Example 191, (S)-Thiazolidine-4-carboxylic acid [(R)-1-[(6-amino-2-methyl-pyridin-3-ylmethyl)-carbamoyl]-2-(3,4-dichloro-phenyl)-ethyl]-amide]
20 | 60.4 | Cc1nc(N)ccc1CNC(=O)[C@H](Cc1ccc(Cl)c(Cl)c1)NC(=O)[C@H]1CC(F)(F)CN1 [Example 192, (R)-4,4-Difluoro-pyrrolidine-2-carboxylic acid [(S)-1-[(6-amino-2-methyl-pyridin-3-ylmethyl)-carbamoyl]-2-(3,4-dichloro-phenyl)-ethyl]-amide]
21 | 23.2 | Cc1nc(N)ccc1CNC(=O)[C@H](Cc1ccc(Cl)c(Cl)c1)NC(=O)[C@H](N)Cc1cccnc1 [Example 196, (R)-2-Amino-N-[(S)-1-[(6-amino-2-methyl-pyridin-3-ylmethyl)-carbamoyl]-2-(3,4-dichloro-phenyl)-ethyl]-3-pyridin-3-yl-propionamide]
22 | 28 | Cc1nc(N)ccc1CNC(=O)[C@H](Cc1ccc(Cl)c(Cl)c1)NC(=O)[C@H](N)C1CCCCC1 [Example 198, (S)-2-((R)-2-Amino-2-cyclohexyl-acetylamino)-N-(6-amino-2-methyl-pyridin-3-ylmethyl)-3-(3,4-dichloro-phenyl)-propionamide]
